One compound from ChEMBL document CHEMBL1155404, “Synthesis, chiral resolution, and determination of novel furan lignan derivatives with potent anti-tumor activity” (Bioorg Med Chem Lett, 2010) can be followed below.

One test deals with HeLa. As to the kind of experiment: Antitumor activity against human HeLa cells by MTT assay. Type of test: functional, cell-based. In general terms: Tetrazolium assays rely on reduction of a dye to a coloured formazan, in cell work by metabolically active cells.
The nature of test [1]: Antitumor activity against human QGY7701 cells by MTT assay. The test is classed as functional, cell-based.

SMILES strings stand for the structures.

Take `O=c1[nH]cc(F)c(=O)[nH]1` [FLUOROURACIL]: the values for the IC50 (in the test on HeLa; in test [1]) were 64.2 µM and 67.2 µM, respectively.

Broadly, the IC50 is the midpoint of a concentration-inhibition curve. A higher IC50 goes with a need for much substance.
